Drawing on patent publication US11174250B2, “Substituted carboxamides as inhibitors of WDR5 protein-protein binding” (PROPELLON THERAPEUTICS INC., priority 2016, dated 2021), this text covers IC50, Kd and residence time for two compounds.

Where two headings read alike, the source gives them in different places.

The target of one test is MLL1-WRAD2 complex (Homo sapiens (Human), UniProt P61964). Put plainly: MLL1-WRAD2 enzyme assay (in vitro methyl transferase assay). Format: biochemical. The conditions noted are these: MLL1-WRAD2 assay; read-out: In vitro MLL1 activity (IC50). How it is done:
Reaction was initiated with 1 μM 3H-SAM and incubated for 1 hour at 30° C. Reaction mixture was transferred to P81 filter-paper and washed with PBS before detection.

The next test deals with MV4-11 cells. Put plainly: Cell proliferation assay (ATPlite). The test is classed as cell-based. The conditions noted are these: Homo sapiens, MV4-11, 120 h; MV-411 cells, five days; read-out: In vitro whole cell potency in MV-411 cells, (IC50). How it is done: MV4-11 cells were seeded into a 96-well plate at 1,000 cells/well in 150 μl medium (Alpha-MEM containing 10% FBS, 100 μg/ml Normocin, and 50 μg/ml Gentamycin, Invitrogen). A HP D300 digital dispenser was used to dose cells with DMSO or test compounds across a 10-point range of concentrations (high dose of 10 μM), and cultures were grown in a humidified 5% CO2 incubator at 37° C. After five days, plates were removed from incubator and equilibrated to room temperature. An equal volume of ATPlite assay reagent was added to each well, and samples were processed according to manufacturer's instructions (Perkin Elmer). Luminescent signal was measured using an Envision plate reader equipped with a US-Luminescence detector.
Background: In ATP-based viability assays light output follows the ATP content of the culture.

In test [1] the test system is H3K4 dimethylation (H3K4me2) in T24 cells. Put plainly: Detection of in-cell H3K4 dimethylation (AlphaLisa). Format: cell-based. The conditions noted are these: Homo sapiens, T-24, 120 h, five days. Here is the method:
T24 cells were seeded into a 96-well plate at 400 cells/well in 150 μl medium (McCoy 5A containing 10% FBS, 100 μg/ml Normocin, and 50 μg/ml Gentamycin, Invitrogen). A HP D300 digital dispenser was used to dose cells with DMSO or test compounds across a 10-point range of concentrations (high dose of 10 μM), and cultures were grown in a humidified 5% CO2 incubator at 37° C. After five days, plates were removed from incubator, media was aspirated, and the cells washed in PBS. Cell lysis, histone extraction, and detection of H3K4 dimethylation (H3K4me2) were performed using an AlphaLisa kit according to the manufacturer's instructions (Perkin Elmer). Signal was measured using an Envision plate reader.

The next test addresses WDR5 protein (Homo sapiens (Human), UniProt P61964). Put plainly: Surface Plasmon Resonance (SPR) assay. Format: binding. The conditions noted are these: SPR.

Experimental for WDR5 protein: Exemplary compounds of the application were dissolved in 100% DMSO at 10 mM, assayed fresh, and then stored at −20° C. for repeat studies and other experiments. Full length WDR5 with an N-terminal His tag and C-terminal AviTag (Avidity Inc.) was expressed in E. coli with coexpression of BirA to biotin label the protein in vivo. Purification was via Ni-NTA. The purified WDR5 protein has a molecular weight of 41976 Da.
SPR studies were performed using a Biacore™ T200 instrument (GE Health Sciences Inc.). Biotinylated WDR5 protein (approximately 3000RU) was stably captured to streptavidin coupled SA chips according to the manufacture's protocol (GE Health Sciences Inc.). The running buffer used was HBS-EP (20 mM Hepes pH 7.4, 150 mM NaCl, 3 mM EDTA, 0.05% P-20) plus 5% DMSO with a flow rate of 40p1/min. For SPR analysis, 5 different concentrations of each exemplary compound of the application were sprayed into 96 or 384 well plates using an HP D300 digital dispenser. […] Curve fitting and KD calculations were performed with the Biacore T200 Evaluation software (GE Health Sciences Inc).

The IC50 is the concentration that gives 50% inhibition. On to `CN1CCN(c2ccc(-c3cc(CN4CCOCC4)ccc3F)cc2NC(=O)c2c[nH]c(=O)cc2C(F)(F)F)CC1` [Example 2, N-(2′-fluoro-4-(4-methylpiperazin-1-yl)-5′-(morpholinomethyl)-[1,1′-biphenyl]-3-yl)-6-oxo-4-(trifluoromethyl)-1,6-dihydropyridine-3-carboxamide], for which the IC50 came out at 939 nM at MLL1-WRAD2 complex, 634 nM in the test on MV4-11 cells and 952 nM in test [1].

The Kd is the concentration at which binding is half-saturated. As usually defined, the residence time is the mean lifetime of the complex, commonly the reciprocal of the off-rate. With `C[C@@H]1CN(c2ccc(-c3nc(N4CCOCC4)ncc3F)cc2NC(=O)c2c[nH]c(=O)cc2C(F)(F)F)C[C@H](C)N1C` [Example 125, N-(5-(5-fluoro-2-morpholinopyrimidin-4-yl)-2-((3S,5R)-3,4,5-trimethylpiperazin-1-yl)phenyl)-6-oxo-4-(trifluoromethyl)-1,6-dihydropyridine-3-carboxamide], the IC50 on MLL1-WRAD2 complex was determined as 49 nM; in the test on MV4-11 cells, 87 nM. Further, the Kd at WDR5 protein (Table 1, read-out: WDR5 binding affinity (KD)) was 3 nM; on WDR5 protein (Table 2, read-out: WDR5 binding affinity SPR (KD)) it was 3.1 nM. In addition, the residence time on WDR5 protein (τ=1/koff, read-out: Residence Time (t, min)) is 11.6 min.
